Measurements from PubChem BioAssay AID248 (DTP/NCI, 2004).
“And” between values parts separate entries of the source, which are not always exact repeats. Equal entries are not always repeated. Inconclusive results and toxic doses are left out.

Test system: L1210 leukemia ip in BDF1 mice, survival T/C
Assay: NCI In Vivo Anticancer Drug Screen. Data for tumor model L1210 Leukemia (intraperitoneal) in B6D2F1 (BDF1) mice
Conditions: endpoint: mean survival time, higher = longer survival
Procedure, shortened: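 Transplanted-tumor mice were given test agent; controls received vehicle only. Survival readings from the two groups were divided (treated over control).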

[1] = dose: 100.0 mg/kg/injection, schedule: Q01DX009 (ip), vehicle: saline with Tween-80
[2] = dose: 100.0 mg/kg/injection, schedule: Q04DX002 (ip), vehicle: saline with Tween-80
[3] = dose: 100.0 mg/kg/injection, schedule: Q04DX003 (ip), vehicle: saline with Tween-80
[4] = dose: 200.0 mg/kg/injection, schedule: Q01DX001 (ip), vehicle: saline with Tween-80
[5] = dose: 200.0 mg/kg/injection, schedule: Q01DX009 (ip), vehicle: saline with Tween-80
[6] = dose: 200.0 mg/kg/injection, schedule: Q04DX002 (ip), vehicle: saline with Tween-80
[7] = dose: 200.0 mg/kg/injection, schedule: Q04DX003 (ip), vehicle: saline with Tween-80
[8] = dose: 400.0 mg/kg/injection, schedule: Q01DX001 (ip), vehicle: saline with Tween-80
[9] = dose: 400.0 mg/kg/injection, schedule: Q01DX009 (ip), vehicle: saline with Tween-80
[10] = dose: 400.0 mg/kg/injection, schedule: Q04DX003 (ip), vehicle: saline with Tween-80
[11] = dose: 50.0 mg/kg/injection, schedule: Q01DX001 (ip), vehicle: carboxymethylcellulose (CMC)
[12] = dose: 100.0 mg/kg/injection, schedule: Q01DX001 (ip), vehicle: carboxymethylcellulose (CMC)
[13] = dose: 200.0 mg/kg/injection, schedule: Q01DX001 (ip), vehicle: carboxymethylcellulose (CMC)
[14] = dose: 400.0 mg/kg/injection, schedule: Q01DX001 (ip), vehicle: carboxymethylcellulose (CMC)
[15] = dose: 100.0 mg/kg/injection, schedule: Q01DX009 (ip), vehicle: Klucel (hydroxypropylcellulose) (HPC)
[16] = dose: 100.0 mg/kg/injection, schedule: Q04DX003 (ip), vehicle: Klucel (hydroxypropylcellulose) (HPC)
[17] = dose: 200.0 mg/kg/injection, schedule: Q01DX009 (ip), vehicle: Klucel (hydroxypropylcellulose) (HPC)
[18] = dose: 200.0 mg/kg/injection, schedule: Q04DX003 (ip), vehicle: Klucel (hydroxypropylcellulose) (HPC)
[19] = dose: 400.0 mg/kg/injection, schedule: Q01DX009 (ip), vehicle: Klucel (hydroxypropylcellulose) (HPC)
[20] = dose: 400.0 mg/kg/injection, schedule: Q04DX003 (ip), vehicle: Klucel (hydroxypropylcellulose) (HPC)
[21] = dose: 100.0 mg/kg/injection, schedule: Q04DX003 (ip), vehicle: saline
[22] = dose: 200.0 mg/kg/injection, schedule: Q04DX003 (ip), vehicle: saline
[23] = dose: 400.0 mg/kg/injection, schedule: Q04DX003 (ip), vehicle: saline

SMILES: COc1ccc(Cl)cc1NC(=O)Oc1ccccn1
- T/C [1]: 89 % of control
- T/C [2]: 92 % of control and 97 % of control
- T/C [3]: 95 % of control
- T/C [4]: 89 % of control
- T/C [5]: 90 % of control and 91 % of control
- T/C [6]: 93 % of control and 102 % of control
- T/C [7]: 101 % of control
- T/C [8]: 92 % of control
- T/C [9]: 96 % of control
- T/C (dose: 400.0 mg/kg/injection, schedule: Q04DX002 (ip), vehicle: saline with Tween-80): 95 % of control and 91 % of control
- T/C [10]: 101 % of control

SMILES: CCOC(=O)N1CCCCC1
- T/C [11]: 95 % of control
- T/C [12]: 95 % of control
- T/C [13]: 101 % of control and 93 % of control
- T/C [14]: 104 % of control and 90 % of control

SMILES: Cc1ccc2cc(-c3ccc(C4CCCCC4)cc3)c(N=O)n2c1
- T/C [11]: 93 % of control
- T/C [12]: 96 % of control
- T/C [13]: 90 % of control
- T/C [14]: 90 % of control

SMILES: c1cc2cc3c(cc2c2c1CC1c4cc5c(cc4CCN1C2)OCO5)OCO3 (stereo not given)
- T/C [15]: 103 % of control
- T/C [16]: 101 % of control
- T/C [17]: 97 % of control
- T/C [18]: 97 % of control
- T/C [19]: 97 % of control
- T/C [20]: 94 % of control

SMILES: CCCCCCC(=O)N1C(C)CCC1C (stereo not given)
- T/C (dose: 100.0 mg/kg/injection, schedule: Q04DX002 (ip), vehicle: saline): 88 % of control
- T/C (dose: 200.0 mg/kg/injection, schedule: Q04DX002 (ip), vehicle: saline): 94 % of control
- T/C (dose: 400.0 mg/kg/injection, schedule: Q04DX002 (ip), vehicle: saline): 102 % of control

SMILES: NC(=O)/C=C\C(=O)O (tested in a mixture with another compound)
- T/C (dose: 31.25 mg/kg/injection, schedule: Q#A X Z (ip), vehicle: carboxymethylcellulose (CMC)): 106 % of control
- T/C (dose: 62.5 mg/kg/injection, schedule: Q#A X Z (ip), vehicle: carboxymethylcellulose (CMC)): 110 % of control
- T/C (dose: 125.0 mg/kg/injection, schedule: Q#A X Z (ip), vehicle: carboxymethylcellulose (CMC)): 118 % of control
- T/C (dose: 250.0 mg/kg/injection, schedule: Q#A X Z (ip), vehicle: carboxymethylcellulose (CMC)): 108 % of control

SMILES: O=C1CN(C(=O)CN2C(=O)c3ccccc3C2=O)C2(CCCCC2)O1
- T/C (dose: 66.0 mg/kg/injection, schedule: Q04DX003 (ip), vehicle: saline sonified): 94 % of control
- T/C (dose: 150.0 mg/kg/injection, schedule: Q04DX003 (ip), vehicle: saline sonified): 101 % of control
- T/C (dose: 200.0 mg/kg/injection, schedule: Q04DX003 (ip), vehicle: saline sonified): 95 % of control
- T/C (dose: 400.0 mg/kg/injection, schedule: Q04DX003 (ip), vehicle: saline sonified): 97 % of control

SMILES: N#CCc1nn(-c2ccccc2)c(N)c1C#N
- T/C (dose: 25.0 mg/kg/injection, schedule: Q01DX001 (ip), vehicle: Klucel (hydroxypropylcellulose) (HPC)): 93 % of control
- T/C (dose: 50.0 mg/kg/injection, schedule: Q01DX001 (ip), vehicle: Klucel (hydroxypropylcellulose) (HPC)): 100 % of control
- T/C (dose: 100.0 mg/kg/injection, schedule: Q01DX001 (ip), vehicle: Klucel (hydroxypropylcellulose) (HPC)): 107 % of control and 91 % of control
- T/C (dose: 150.0 mg/kg/injection, schedule: Q01DX001 (ip), vehicle: Klucel (hydroxypropylcellulose) (HPC)): 97 % of control

SMILES: CN1CN2c3ccccc3CCC2C2CCCC21 (stereo not given)
- T/C (dose: 50.0 mg/kg/injection, schedule: Q04DX002 (ip), vehicle: saline with Tween-80): 104 % of control
- T/C [2]: 96 % of control
- T/C [6]: 101 % of control

SMILES: Nc1cc(Cl)c(Cl)cc1S(=O)(=O)O
- T/C [15]: 101 % of control
- T/C [16]: 102 % of control
- T/C [17]: 98 % of control
- T/C [18]: 98 % of control
- T/C [19]: 92 % of control
- T/C [20]: 96 % of control

SMILES: Nc1cnc([S][Sn]([c]2ccccc2)([c]2ccccc2)[c]2ccccc2)s1
- T/C (dose: 6.25 mg/kg/injection, schedule: Q04DX002 (ip), vehicle: saline with Tween-80): 101 % of control
- T/C (dose: 12.5 mg/kg/injection, schedule: Q04DX002 (ip), vehicle: saline with Tween-80): 96 % of control
- T/C (dose: 25.0 mg/kg/injection, schedule: Q04DX002 (ip), vehicle: saline with Tween-80): 104 % of control

SMILES: CN(C)CCCN=Cc1cc(Cl)ccc1O.CN(C)CCCN=Cc1cc(Cl)ccc1O.[Ni+2]
- T/C (dose: 6.25 mg/kg/injection, schedule: Q04DX003 (ip), vehicle: saline with Tween-80): 92 % of control
- T/C (dose: 12.5 mg/kg/injection, schedule: Q04DX003 (ip), vehicle: saline with Tween-80): 105 % of control
- T/C (dose: 25.0 mg/kg/injection, schedule: Q04DX003 (ip), vehicle: saline with Tween-80): 97 % of control

SMILES: CC(=O)NC1C(OCc2ccccc2)OC(COC(c2ccccc2)(c2ccccc2)c2ccccc2)C(N=[N+]=[N-])C1OCc1ccccc1 (stereo not given)
- T/C (dose: 100.0 mg/kg/injection, schedule: Q01DX001 (ip), vehicle: saline with Tween-80): 86 % of control
- T/C [4]: 86 % of control
- T/C [8]: 102 % of control

SMILES: C/C(CSc1ncnc2nc[nH]c12)=N\NC(N)=S
- T/C (dose: 50.0 mg/kg/injection, schedule: Q04DX003 (ip), vehicle: saline with Tween-80): 101 % of control
- T/C [3]: 95 % of control and 102 % of control
- T/C [7]: 93 % of control
- T/C [10]: 104 % of control

SMILES: CNc1nnnn1Cc1ccccc1
- T/C [21]: 105 % of control
- T/C [22]: 94 % of control
- T/C [23]: 97 % of control

SMILES: O=C(Nc1ccc(Cl)cc1C(F)(F)F)Oc1ccc(OCc2ccccc2)cc1
- T/C [1]: 94 % of control
- T/C [5]: 100 % of control
- T/C [9]: 92 % of control

SMILES: Cc1nc(N)[nH]c(=O)c1CCCN(c1ccccc1)S(=O)(=O)c1ccc([N+](=O)[O-])cc1
- T/C (dose: 6.25 mg/kg/injection, schedule: Q01DX001 (ip), vehicle: saline with Tween-80): 104 % of control
- T/C (dose: 12.5 mg/kg/injection, schedule: Q01DX001 (ip), vehicle: saline with Tween-80): 100 % of control
- T/C (dose: 25.0 mg/kg/injection, schedule: Q01DX001 (ip), vehicle: saline with Tween-80): 98 % of control

SMILES: c1ccc2c(c1)ccc1c2ccc2cccc[n+]21
- T/C (dose: 1.25 mg/kg/injection, schedule: Q01DX001 (ip), vehicle: saline): 97 % of control
- T/C (dose: 2.5 mg/kg/injection, schedule: Q01DX001 (ip), vehicle: saline): 97 % of control
- T/C (dose: 5.0 mg/kg/injection, schedule: Q01DX001 (ip), vehicle: saline): 103 % of control
- T/C (dose: 5.0 mg/kg/injection, schedule: Q01DX015 (ip), vehicle: saline): 103 % of control
- T/C (dose: 10.0 mg/kg/injection, schedule: Q01DX001 (ip), vehicle: saline): 107 % of control

SMILES: Cc1cc(=O)[nH]c2ccc(-c3ccc4[nH]c(=O)cc(C)c4c3)cc12
- T/C [15]: 101 % of control
- T/C [16]: 102 % of control
- T/C [17]: 95 % of control
- T/C [18]: 100 % of control
- T/C [19]: 95 % of control
- T/C [20]: 100 % of control

SMILES: CCC(=O)NC1(C(=O)O)CCCc2ccccc21 (stereo not given)
- T/C [16]: 110 % of control
- T/C [18]: 96 % of control

SMILES: CC(=O)OC1CCC(NC(=O)N(CCF)N=O)CC1 (stereo not given)
- T/C (dose: 20.0 mg/kg/injection, schedule: Q01DX001 (ip), vehicle: other): 298 % of control
- T/C (dose: 40.0 mg/kg/injection, schedule: Q01DX001 (ip), vehicle: other): 333 % of control

SMILES: O=c1[nH]cc(Nc2ccccc2)c(=O)[nH]1
- T/C [16]: 95 % of control
- T/C [18]: 92 % of control
- T/C [20]: 88 % of control

SMILES: O=C(NC(=S)Nc1nc(-c2ccccc2)cs1)c1ccccc1
- T/C (dose: 100.0 mg/kg/injection, schedule: Q01DX001 (ip), vehicle: gum acacia): 95 % of control
- T/C (dose: 200.0 mg/kg/injection, schedule: Q01DX001 (ip), vehicle: gum acacia): 103 % of control
- T/C (dose: 400.0 mg/kg/injection, schedule: Q01DX001 (ip), vehicle: gum acacia): 103 % of control

SMILES: c1ccc(ON=C2c3ccccc3-c3ccccc32)cc1
- T/C [21]: 102 % of control
- T/C [22]: 96 % of control
- T/C [23]: 89 % of control
